Experimental data: patent publication US20250352512A2, “C4-S[…] DERIVATIVES AND METHODS OF USING” (priority 2022, published 2025)
Where two headings read alike, the source gives them in different places.

Assays:
Test in all cases: cell-based
HTR1B (5-HTR1B) [1] = biological target: T1, HTR1B (5-HTR1B) (Homo sapiens, UniProt P28222)
AVPR1A [2] = biological target: T2, AVPR1A (Homo sapiens, UniProt P37288)
HTR1B (5-HTR1B) [3] = biological target: T1, HTR1B (5-HTR1B); remark: listed apart in the source
AVPR1A [4] = biological target: T2, AVPR1A; remark: listed apart in the source
DRD2S = DRD2S (Homo sapiens, UniProt P14416)
HTR3A (5-HT3A) [5] = biological target: T3, HTR3A (5-HT3A) (Homo sapiens, UniProt P46098)
T3 sequence (P46098 24-478): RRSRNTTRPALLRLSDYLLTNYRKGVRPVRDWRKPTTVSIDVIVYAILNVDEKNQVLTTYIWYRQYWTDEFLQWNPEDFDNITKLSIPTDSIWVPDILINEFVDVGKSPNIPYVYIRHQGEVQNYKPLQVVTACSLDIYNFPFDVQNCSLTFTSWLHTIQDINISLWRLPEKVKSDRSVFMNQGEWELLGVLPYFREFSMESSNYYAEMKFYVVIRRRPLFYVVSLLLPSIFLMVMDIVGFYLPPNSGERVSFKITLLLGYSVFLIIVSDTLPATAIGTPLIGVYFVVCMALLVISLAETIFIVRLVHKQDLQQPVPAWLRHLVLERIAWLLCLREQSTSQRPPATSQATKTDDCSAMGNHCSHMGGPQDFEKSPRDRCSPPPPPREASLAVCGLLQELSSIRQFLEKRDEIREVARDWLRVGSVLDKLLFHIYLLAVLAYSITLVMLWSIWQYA

HTR3A (5-HT3A) [6] = biological target: T3, HTR3A (5-HT3A); remark: listed apart in the source
[7] = HTR1B, GPCR, AGN (agonist), read-out: EC50
[8] = AVPR1A, GPCR, AGN (agonist), read-out: EC50
[9] = HTR1B, GPCR, ANT (antagonist), read-out: IC50
[10] = AVPR1A, GPCR, ANT (antagonist), read-out: IC50
[11] = DRD2S, GPCR, AGN (agonist), read-out: EC50
[12] = HTR3A, ion channel, BL (blocker), read-out: IC50
[13] = HTR3A, ion channel, OP (opener), read-out: EC50

T1 sequence (P28222 whole entry): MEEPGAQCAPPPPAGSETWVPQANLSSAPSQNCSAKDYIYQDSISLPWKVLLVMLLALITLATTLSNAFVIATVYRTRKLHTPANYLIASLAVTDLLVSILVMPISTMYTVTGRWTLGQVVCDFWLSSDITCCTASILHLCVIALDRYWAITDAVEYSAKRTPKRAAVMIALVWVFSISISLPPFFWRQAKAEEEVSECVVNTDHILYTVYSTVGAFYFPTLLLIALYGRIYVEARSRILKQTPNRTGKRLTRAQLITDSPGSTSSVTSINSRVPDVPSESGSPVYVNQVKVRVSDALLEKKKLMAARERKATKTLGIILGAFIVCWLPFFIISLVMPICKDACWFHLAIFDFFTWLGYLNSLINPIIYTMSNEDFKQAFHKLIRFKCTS
T2 sequence (P37288 whole entry): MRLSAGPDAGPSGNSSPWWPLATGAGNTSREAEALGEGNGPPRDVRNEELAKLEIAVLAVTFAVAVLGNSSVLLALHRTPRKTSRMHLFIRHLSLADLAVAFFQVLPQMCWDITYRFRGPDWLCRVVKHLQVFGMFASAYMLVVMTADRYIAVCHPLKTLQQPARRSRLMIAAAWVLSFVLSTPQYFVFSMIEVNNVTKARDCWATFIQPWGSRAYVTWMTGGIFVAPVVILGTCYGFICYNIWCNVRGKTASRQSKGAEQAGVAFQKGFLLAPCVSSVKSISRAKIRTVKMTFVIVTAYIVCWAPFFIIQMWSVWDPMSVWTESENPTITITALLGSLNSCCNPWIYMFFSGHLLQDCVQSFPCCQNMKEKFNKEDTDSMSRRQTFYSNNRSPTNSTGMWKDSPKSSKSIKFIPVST
Sequence of DRD2S (P14416 1-414 isoform P14416-2): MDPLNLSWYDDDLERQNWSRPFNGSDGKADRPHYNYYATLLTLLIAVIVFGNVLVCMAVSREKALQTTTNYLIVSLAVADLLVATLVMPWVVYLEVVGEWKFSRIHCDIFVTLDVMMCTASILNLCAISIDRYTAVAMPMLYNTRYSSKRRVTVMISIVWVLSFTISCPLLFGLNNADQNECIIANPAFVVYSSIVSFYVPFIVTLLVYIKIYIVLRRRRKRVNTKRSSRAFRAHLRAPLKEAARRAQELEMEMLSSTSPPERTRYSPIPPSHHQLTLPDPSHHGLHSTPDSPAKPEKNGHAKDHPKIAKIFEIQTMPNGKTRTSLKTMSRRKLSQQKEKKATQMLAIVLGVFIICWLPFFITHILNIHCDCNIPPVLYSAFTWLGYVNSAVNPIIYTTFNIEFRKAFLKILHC

| Compound | EC50 (HTR1B (5-HTR1B) [1]; [7]) [µM] | EC50 (AVPR1A [2]; [8]) [µM] | IC50 (HTR1B (5-HTR1B) [3]; [9]) [µM] | IC50 (AVPR1A [4]; [10]) [µM] | EC50 (DRD2S; [11]) [µM] | IC50 (HTR3A (5-HT3A) [5]; [12]) [µM] | EC50 (HTR3A (5-HT3A) [6]; [13]) [µM] | EC50 (HTR1B (5-HTR1B) [1]) [µM] | EC50 (AVPR1A [2]) [µM] | IC50 (HTR1B (5-HTR1B) [3]) [µM] | IC50 (AVPR1A [4]) [µM] | EC50 (DRD2S) [µM] | IC50 (HTR3A (5-HT3A) [5]) [µM] | EC50 (HTR3A (5-HT3A) [6]) [µM] |
| --- | --- | --- | --- | --- | --- | --- | --- | --- | --- | --- | --- | --- | --- | --- |
| CN(C)Cc1c[nH]c2cccc(O[Si](C)(C)C(C)(C)C)c12 [A(IV)] | 0.503 | > 100 | > 100 | 42.3 | 12.7 | 0.83 | > 100 |  |  |  |  |  |  |  |
| CC(C)[Si](Oc1cccc2[nH]cc(CN(C)C)c12)(C(C)C)C(C)C [A(V)] | 1.19 | > 100 | > 100 | 17 | > 100 | 1.43 | > 100 |  |  |  |  |  |  |  |
| CN(C)CCc1c[nH]c2cccc(OC(=O)OCc3ccccc3)c12 [B(II)] |  |  |  |  |  |  |  | 0.446 | > 100 | > 100 | 42.6 | > 100 | 2.34 | > 100 |
| CN(C)CCc1c[nH]c2cccc(OC(=O)OCC3CC3)c12 [B(III)] | 0.0618 | > 100 | > 100 | > 100 | 3.81 | 47.4 | > 100 |  |  |  |  |  |  |  |
| CCCCC(=O)OCOc1cccc2[nH]cc(CCN(C)C)c12 [D(III)] | 0.279 | > 100 | > 100 | > 100 | 17.8 | 32.4 | > 100 |  |  |  |  |  |  |  |
| CCCC(=O)OCOc1cccc2[nH]cc(CCN(C)C)c12 [D(IV)] | 0.638 | > 100 | > 100 | > 100 | 27.4 | > 100 | > 100 |  |  |  |  |  |  |  |
| CC(C)OC(=O)OCOc1cccc2c1c(CCN(C)C)cn2COC(=O)OC(C)C [D(XIII)] | 9.32 | > 100 | > 100 | > 100 | 77 | 16.7 | > 100 |  |  |  |  |  |  |  |
| CN(C)CCc1c[nH]c2cccc(OP(=O)(Oc3ccccc3)Oc3ccccc3)c12 [F(I)] |  |  |  |  |  |  |  | 0.0549 | > 100 | > 100 | > 100 | 3.06 | 2.52 | > 100 |
